Series [1] concerns E. acervuline, E. maxima, E. tenella oocysts. As to the kind of experiment: Study No. 3: floor-pen broiler performance and digestive health under cocci-challenge + built-up litter. The note with it: Coban 90 g/ton, Inventive Compound 125 g/ton.
Series [2] deals with T1, TLR4 (Homo sapiens, UniProt O00206+Q9Y6Y9). The note with it: Phase 2 multiple sclerosis trial, versus placebo; cited from earlier work.
The target in series [3] is T1, TLR4. The note with it: severe sepsis; cited from earlier work.
The subject of series [4] is mixed E. acervulina, E. maxima, and E. tenella coccidial inoculum. As to the kind of experiment: Study No. 1: anticoccidial efficacy in feed, battery-cage broilers, mixed Eimeria challenge. Format: in vivo, male broiler chickens. The note with it: Salinomycin 60 g/t. From the text:
A non-limiting example of a method for the improvement of growth efficiency in broiler chickens exposed to a coccidiosis disease challenge is set forth.
The study animals were chickens, specifically male broiler chickens. Day of hatch male broiler chicks were obtained. At the hatchery, the birds were sexed. Sets of ten chicks were randomly selected, group weighed and placed into cages. The number and disposition of all birds not used for allocation were documented. No birds were replaced during the course of the study. There were 80 birds per treatment group.
The poultry cages were blocked by location in the battery with block size equal to treatments. The study began when the birds, specifically broiler chickens, were placed on the day of hatch (DOT 0) at which time they were allocated to the experimental cages. Only healthy birds were selected. At placement the birds were fed the treatment feeds. Thermostatically controlled gas furnace/air conditioner maintained uniform temperature in the cages.
An un-medicated commercial type chicken starter compounded with feedstuffs commonly used in the United States was formulated. The diet was an all-vegetable feed having no antibiotics, organic acid, NSP enzyme, or direct fed microbial. This ration was fed ad libitum from the date of chick arrival until Day 28 of the study. The diet formulation was included in the source data. Experimental treatment feeds were prepared from this basal starter feed. Quantities of all basal feed and test articles used to prepare treatment batches were documented.
All birds were weighed by cage on DOT 0, 14, 20 and 28. Feed was weighed in on DOT 0. The remaining feed was weighed on DOT 14, 20, and 28.
Coccidial oocysts inoculation procedures were carried out. On Day 14 of the study, all birds except T1 orally received a mixed E. acervulina, E. maxima, and E. tenella coccidial inoculum diluted to a 1.0 ml volume (p.o.). Inoculum level attempted to produce a moderate challenge.
On DOT 20, a select number of birds from each cage were selected, sacrificed, weighed, and examined for the degree of presence of coccidia lesions. The Johnson and Reid (1970) method of coccidiosis lesion scoring was used to score the infected region(s) of the intestine. The scoring was based on a 0 to 4 score, with 0 being normal and 4 being the most severe. Also on Day 20 mixed feces were collected from each cage. Each sample was examined for the number of oocysts per gram fecal material by fecal floatation.
STUDY NO. 1—ANALYSIS METHODOLOGY Means for cage weight gain, feed consumption, feed conversion, lesion scores, oocyst counts (OPGs), and mortality were calculated.

The mark [5] stands for this setting: DAY 0-20, infected Day 14, Inventive Compound 0.551%.
Setting [6] is: DAY 0-28, infected Day 14, Inventive Compound 0.551%.
[7] abbreviates: DAY 14 (before challenge), Inventive Compound 0.551% in feed.
Where [8] appears, read: DAY 14-20, infected Day 14, Inventive Compound 0.551%.
Setting [9] is: DAY 14-28, infected Day 14, Inventive Compound 0.551%.
[10] abbreviates: DOT 20, Johnson and Reid 0 to 4 score, Inventive Compound 0.551%.
[11] abbreviates: Day 20 mixed feces, fecal floatation, Inventive Compound 0.551%.

T1 sequence (O00206 24-839): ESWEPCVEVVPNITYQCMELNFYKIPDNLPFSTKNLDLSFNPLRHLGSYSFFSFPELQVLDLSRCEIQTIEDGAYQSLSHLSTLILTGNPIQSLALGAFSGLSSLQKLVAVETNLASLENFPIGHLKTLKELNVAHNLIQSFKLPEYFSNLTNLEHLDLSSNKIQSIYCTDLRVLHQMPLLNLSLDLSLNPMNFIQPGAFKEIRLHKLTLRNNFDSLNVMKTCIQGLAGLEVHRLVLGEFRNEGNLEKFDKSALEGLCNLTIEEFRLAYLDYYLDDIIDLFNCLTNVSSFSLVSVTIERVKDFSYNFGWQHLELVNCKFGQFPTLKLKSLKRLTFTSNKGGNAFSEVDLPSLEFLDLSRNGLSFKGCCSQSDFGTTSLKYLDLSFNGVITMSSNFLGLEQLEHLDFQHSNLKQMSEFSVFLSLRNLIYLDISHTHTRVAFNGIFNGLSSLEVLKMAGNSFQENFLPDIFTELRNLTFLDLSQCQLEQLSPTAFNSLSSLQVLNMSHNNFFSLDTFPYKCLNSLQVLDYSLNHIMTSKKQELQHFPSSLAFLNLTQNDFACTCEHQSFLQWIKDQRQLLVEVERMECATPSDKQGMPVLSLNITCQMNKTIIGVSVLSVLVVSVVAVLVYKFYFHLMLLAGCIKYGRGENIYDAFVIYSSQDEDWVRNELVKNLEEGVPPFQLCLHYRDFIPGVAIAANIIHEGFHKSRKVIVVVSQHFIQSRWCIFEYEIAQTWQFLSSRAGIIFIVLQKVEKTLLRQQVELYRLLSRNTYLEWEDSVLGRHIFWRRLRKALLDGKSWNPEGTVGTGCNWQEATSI
T1 sequence (Q9Y6Y9 17-160 limits assumed): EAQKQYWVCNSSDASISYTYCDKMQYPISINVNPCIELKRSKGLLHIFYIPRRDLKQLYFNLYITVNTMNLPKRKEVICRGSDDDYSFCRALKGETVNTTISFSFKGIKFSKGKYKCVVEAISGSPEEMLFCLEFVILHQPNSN

For `CC[C@@]1([C@@H]2O[C@@H]([C@H]3O[C@@](O)(CO)[C@H](C)C[C@@H]3C)C[C@@H]2C)CC[C@H]([C@]2(C)CC[C@]3(C[C@H](O)[C@@H](C)[C@@H]([C@@H](C)[C@@H](OC)[C@H](C)C(=O)O)O3)O2)O1` [Coban, Monensin, USP], in series [1] (DAY 0-14, challenge Day 7), the “% Mortality” value came to 0.833a %, the “Avg Body Weight (g)” value came out at 496.13a g, the FCR is given as 1.112ab and the “Feed Intake (g/bird/day)” value was 34.680b g/bird/day. Besides, in series [1] (DAY 0-21), the “% Mortality” value stood at 1.563a %, the “Avg Body Weight (g)” value stood at 951.80a g, the FCR came out at 1.151a and the “Feed Intake (g/bird/day)” value was determined as 54.811a g/bird/day. In series [1] (DAY 0-28), the “% Mortality” value came to 1.563a %, the “Avg Body Weight (g)” value is 1535.00a g, the FCR amounted to 1.387a and the “Feed Intake (g/bird/day)” value came to 78.960c g/bird/day. In series [1] (DAY 15-21), the “% Mortality” value stood at 0.729a %, the “Avg Body Weight (g)” value was 445.167a g, the FCR stood at 1.244ab and the “Feed Intake (g/bird/day)” value was 77.988a g/bird/day. In addition, in series [1] (DAY 22-28), the “% Mortality” value was found to be 0.000a %, the “Avg Body Weight (g)” value stood at 583.217a g, the FCR was found to be 1.825a and the “Feed Intake (g/bird/day)” value turned out to be 151.410c g/bird/day. Further, in series [1] (Day 14), the “DAY 14 Avg Lesion Score Ceca” value was 0.292a and the “DAY 14 Avg Lesion Score Duodenum” value is 0.375b. Moreover, in series [1] (Day 28), the “DAY 28 Avg Lesion Score Ceca” value was 0.229a and the “DAY 28 Avg Lesion Score Duodenum” value was determined as 0.208a.

On to `CC(C)C(=O)c1c(C(C)C)nn2ccccc12` [Ibudilast], for which the “rates of gastrointestinal side effects, headache, and depression” value at TLR4 [2] is “higher rates”.

In the case of `CCOC(=O)C1=CCCC[C@H]1S(=O)(=O)Nc1ccc(F)cc1Cl` [Resatorvid], at TLR4 [3], the “mortality in Phase 3 clinical trials” value is recorded as “failed to reduce mortality”.

With `CC[C@@H](C(=O)[C@@H](C)[C@@H](O)[C@H](C)[C@@H]1O[C@@H]([C@@H](CC)C(=O)O)CC[C@@H]1C)[C@H]1O[C@]2(C=C[C@@H](O)[C@]3(CC[C@@](C)([C@H]4CC[C@](O)(CC)[C@H](C)O4)O3)O2)[C@H](C)C[C@@H]1C` [Salinomycin], in series [4] (setting [5]), the FCR is recorded as 1.597bc, the “Feed Intake” value was 5.433a and the “Wt. Gain” value is recorded as 0.360b. Besides, in series [4] (setting [6]), the FCR came out at 1.625bc, the “Feed Intake” value worked out at 5.918a and the “Wt. Gain” value was 0.376b. In series [4] (setting [7]), the FCR turned out to be 1.156a, the “Feed Intake” value came to 2.384a and the “Wt. Gain” value was found to be 0.218a. In series [4] (setting [8]), the FCR amounted to 1.744b, the “Feed Intake” value was 3.049a and the “Wt. Gain” value was determined as 0.185b. For the same compound, in series [4] (setting [9]), the FCR is reported as 1.766c, the “Feed Intake” value came out at 3.534a and the “Wt. Gain” value stood at 0.202b. Moreover, in series [4] (setting [10]), the “Lesion Scores Avg.” value was 1.3c, the “Lesion Scores Eimeria acervulina” value stood at 2.1c, the “Lesion Scores Eimeria maxima” value was determined as 0.9c and the “Lesion Scores Eimeria tenella” value is reported as 0.7c. In addition, in series [4] (setting [11]), the “Oocysts per Gram Fecal Material Avg.” value was 9722b, the “Oocysts per Gram Fecal Material Eimeria acervulina” value is on record as 4511a, the “Oocysts per Gram Fecal Material Eimeria maxima” value amounted to 484b and the “Oocysts per Gram Fecal Material Eimeria tenella” value is given as 4727c.
